In ChEMBL document CHEMBL5505995, “Discovery of novel urea derivatives as ferroptosis and autophagy inducer for human colon cancer treatment” (Eur J Med Chem, 2024):
Active and inactive are the calls of the source. No cut-off for these calls is given here.

What was measured:
HT-29 [1] = assay: Induction of cell death in human HT-29 cells incubated for 48 hrs in presence of ferroptosis inhibitor deferoxamine by MTT assay; format: functional, cell-based
HeLa = assay: Antiproliferative activity against human HeLa cells assessed as inhibition of cell growth incubated for 48 hrs by MTT assay; format: functional, cell-based
HT-29 [2] = assay: Induction of ferroptosis in human HT-29 cells assessed as fusion of mitochondrial cristae incubated for 48 hrs by transmission electron microscopic analysis; format: functional, cell-based
HT-29 [3] = assay: Induction of ferroptosis in human HT-29 cells assessed as decrease in intracellular GSH level incubated for 48 hrs in presence of ferroptosis inhibitor deferoxamine; format: functional, cell-based
HT-29 [4] = assay: Induction of cell cycle arrest in human HT-29 cells assessed as accumulation of cells at G2/M phase at 1 uM incubated for 48 hrs by propidium iodide staining based flow cytometric analysis; format: functional
HT-29 [5] = assay: Induction of autophagy in human HT-29 cells assessed as increase in MDC positive cells incubated for 48 hrs by MDC staining based flow cytometric analysis; format: functional, cell-based
HT-29 [6] = assay: Antiproliferative activity against human HT-29 cells assessed as inhibition of cell growth incubated for 48 hrs by MTT assay; format: functional, cell-based; settings: HT-29, 48 h
HT-29 [7] = assay: Induction of cell cycle arrest in human HT-29 cells assessed as accumulation of cells at G2/M phase at 4 uM incubated for 48 hrs by propidium iodide staining based flow cytometric analysis relative to control; format: functional
HT-29 [8] = assay: Induction of ferroptosis in human HT-29 cells assessed as increase in intracellular iron level incubated for 48 hrs; format: functional, cell-based
HT-29 [9] = assay: Antiproliferative activity against human HT-29 cells assessed as inhibition of cell growth incubated for 48 hrs in presence of ROS scavenger NAC by MTT assay; format: functional, cell-based
HT-29 [10] = assay: Induction of ferroptosis in human HT-29 cells assessed as decrease in intracellular GSH level incubated for 48 hrs in presence of autophagy inhibitor 3-methyladenine; format: functional, cell-based
HT-29 [11] = assay: Induction of ferroptosis in human HT-29 cells incubated for 48 hrs by MTT assay; format: functional, cell-based
HT-29 [12] = assay: Induction of apoptosis in human HT-29 cells at 1 to 4 uM incubated for 48 hrs by Annexin V-FITC/PI staining based flow cytometry; format: functional, cell-based; settings: dose 1-4 µM
HT-29 [13] = assay: Induction of ROS production in human HT-29 cells assessed as increase in DCF fluorescence intensity incubated for 48 hrs by DCFH-DA fluorescent probe based flow cytometry; format: functional, cell-based
HT-29 [14] = assay: Induction of ferroptosis in human HT-29 cells assessed as decrease in GPx level incubated for 48 hrs in presence of autophagy inhibitor 3-methyladenine; format: functional, cell-based
HT-29 [15] = assay: Antiproliferative activity against human HT-29 cells assessed as inhibition of cell growth incubated for 48 hrs in presence of autophagy inhibitor 3-methyladenine by MTT assay; format: functional, cell-based
HT-29 [16] = assay: Induction of ferroptosis in human HT-29 cells assessed as decrease in GPx level incubated for 48 hrs in presence of ferroptosis inhibitor deferoxamine; format: functional, cell-based
HT-29 [17] = assay: Induction of autophagy in human HT-29 cells assessed as upregulation of ATG5 protein expression incubated for 48 hrs by Western blotting analysis; format: functional, cell-based
HT-29 [18] = assay: Induction of ferroptosis in human HT-29 cells assessed as decrease in GPx level incubated for 48 hrs in presence of ferroptosis inhibitor CPX; format: functional, cell-based
HT-29 [19] = assay: Induction of ferroptosis in human HT-29 cells assessed as increase in intracellular malondialdehyde accumulation incubated for 48 hrs in presence of ferroptosis inhibitor deferoxamine; format: functional, cell-based
HT-29 [20] = assay: Induction of cell death in human HT-29 cells incubated for 48 hrs in presence of ferroptosis inhibitor CPX by MTT assay; format: functional, cell-based
HT-29 [21] = assay: Induction of ferroptosis in human HT-29 cells assessed as increase in intracellular malondialdehyde accumulation incubated for 48 hrs in presence of autophagy inhibitor 3-methyladenine; format: functional, cell-based
HT-29 [22] = assay: Induction of ferroptosis in human HT-29 cells assessed as increase in intracellular lipid peroxidation accumulation incubated for 48 hrs in presence of autophagy inhibitor 3-methyladenine by C11 BODIPY 581/591 staining based flow cytometry; format: functional, cell-based
HT-29 [23] = assay: Induction of ferroptosis in human HT-29 cells assessed as fusion of mitochondrial cristae incubated for 48 hrs in presence of ferroptosis inhibitor deferoxamine by transmission electron microscopic analysis; format: functional, cell-based
HT-29 [24] = assay: Induction of ferroptosis in human HT-29 cells assessed as increase in intracellular malondialdehyde accumulation incubated for 48 hrs; format: functional, cell-based
HT-29 [25] = assay: Antiproliferative activity against human HT-29 cells assessed as inhibition of cell growth incubated for 48 hrs in presence of autophagy inhibitor Spautin-1 by MTT assay; format: functional, cell-based
HT-29 [26] = assay: Induction of ferroptosis in human HT-29 cells assessed as increase in intracellular iron level incubated for 48 hrs in presence of ferroptosis inhibitor CPX; format: functional, cell-based
Cell membrane = assay: Induction of mitochondrial membrane potential loss in human HT-29 cells assessed as increase in green fluorescence incubated for 48 hrs by JC-1 staining based flow cytometry; format: cell membranes
HT-29 [27] = assay: Induction of ferroptosis in human HT-29 cells assessed as increase in intracellular lipid peroxidation accumulation incubated for 48 hrs in presence of ROS scavenger NAC by C11 BODIPY 581/591 staining based flow cytometry; format: functional, cell-based
HepG2 = assay: Antiproliferative activity against human HepG2 cells assessed as inhibition of cell growth incubated for 48 hrs by MTT assay; format: functional, cell-based; settings: HepG2, 48 h
HT-29 [28] = assay: Induction of autophagy in human HT-29 cells assessed as increase in MDC positive cells incubated for 48 hrs in presence of ferroptosis inhibitor deferoxamine by MDC staining based flow cytometric analysis; format: functional, cell-based
MCF7 = assay: Antiproliferative activity against human MCF7 cells assessed as inhibition of cell growth incubated for 48 hrs by MTT assay; format: functional, cell-based; settings: MCF7, 48 h
HT-29 [29] = assay: Induction of autophagy in human HT-29 cells assessed as upregulation of ATG7 protein expression incubated for 48 hrs by Western blotting analysis; format: functional, cell-based
HT-29 [30] = assay: Induction of ferroptosis in human HT-29 cells assessed as decrease in intracellular GSH level at 1 to 4 uM incubated for 48 hrs; format: functional, cell-based; settings: dose 1-4 µM
HT-29 [31] = assay: Induction of ferroptosis in human HT-29 cells assessed as increase in intracellular iron level incubated for 48 hrs in presence of ferroptosis inhibitor deferoxamine; format: functional, cell-based
HT-29 [32] = assay: Induction of ferroptosis in human HT-29 cells assessed as increase in intracellular lipid peroxidation accumulation incubated for 48 hrs in presence of ferroptosis inhibitor CPX by C11 BODIPY 581/591 staining based flow cytometry; format: functional, cell-based
HT-29 [33] = assay: Induction of ferroptosis in human HT-29 cells assessed as decrease in GPX4 expression incubated for 48 hrs by Western blotting analysis; format: functional, cell-based
HT-29 [34] = assay: Induction of ferroptosis in human HT-29 cells assessed as decrease in GPx level at 1 to 4 uM incubated for 48 hrs; format: functional, cell-based; settings: dose 1-4 µM
HT-29 [35] = assay: Induction of ferroptosis in human HT-29 cells assessed as increase in mitochondrial membrane density incubated for 48 hrs in presence of ferroptosis inhibitor deferoxamine by transmission electron microscopic analysis; format: functional, cell-based
HT-29 [36] = assay: Induction of ferroptosis in human HT-29 cells assessed as increase in intracellular lipid peroxidation accumulation incubated for 48 hrs in presence of ferroptosis inhibitor deferoxamine by C11 BODIPY 581/591 staining based flow cytometry; format: functional, cell-based

Question: `COc1ccc2c(c1)NCCN2C(=O)NCCCl` was tested. Which Activity (HT-29 [1]) did it give?
Answer: inactive

Question: And the IC50 (HeLa)?
Answer: 6.18 µM

Question: And the Activity (HT-29 [2])?
Answer: Active

Question: And the Activity (HT-29 [3])?
Answer: inactive

Question: What about the Activity (HT-29 [4]) of the same compound?
Answer: inactive

Question: What about the Activity (HT-29 [5]) of the same compound?
Answer: Dose-Dependent Effect

Question: And the IC50 (HT-29 [6])?
Answer: 1.97 µM

Question: And the Activity (HT-29 [7])?
Answer: >80%

Question: What about the Activity (HT-29 [8]) of the same compound?
Answer: Dose-Dependent Effect

Question: What about the Activity (HT-29 [9]) of the same compound?
Answer: inactive

Question: And the Activity (HT-29 [10])?
Answer: Active

Question: What about the Activity (HT-29 [11]) of the same compound?
Answer: Active

Question: And the Activity (HT-29 [12])?
Answer: inactive

Question: What about the Activity (HT-29 [13]) of the same compound?
Answer: Dose-Dependent Effect

Question: And the Activity (HT-29 [14])?
Answer: Active

Question: And the Activity (HT-29 [15])?
Answer: inactive

Question: What about the Activity (HT-29 [16]) of the same compound?
Answer: inactive

Question: And the Activity (HT-29 [17])?
Answer: Dose-Dependent Effect

Question: What about the Activity (HT-29 [18]) of the same compound?
Answer: inactive

Question: What about the Activity (HT-29 [19]) of the same compound?
Answer: inactive

Question: What about the Activity (HT-29 [20]) of the same compound?
Answer: inactive

Question: What about the Activity (HT-29 [21]) of the same compound?
Answer: Active

Question: And the Activity (HT-29 [22])?
Answer: Active

Question: And the Activity (HT-29 [23])?
Answer: inactive

Question: What about the Activity (HT-29 [24]) of the same compound?
Answer: Dose-Dependent Effect

Question: And the Activity (HT-29 [25])?
Answer: inactive

Question: And the Activity (HT-29 [26])?
Answer: inactive

Question: And the Activity (Cell membrane)?
Answer: Dose-Dependent Effect

Question: What about the Activity (HT-29 [27]) of the same compound?
Answer: inactive

Question: What about the IC50 (HepG2) of the same compound?
Answer: 13.8 µM

Question: And the Activity (HT-29 [28])?
Answer: Active

Question: And the IC50 (MCF7)?
Answer: 7.01 µM

Question: What about the Activity (HT-29 [29]) of the same compound?
Answer: Dose-Dependent Effect

Question: And the Activity (HT-29 [30])?
Answer: Active

Question: What about the Activity (HT-29 [31]) of the same compound?
Answer: inactive

Question: And the Activity (HT-29 [32])?
Answer: inactive

Question: And the Activity (HT-29 [33])?
Answer: Dose-Dependent Effect

Question: What about the Activity (HT-29 [34]) of the same compound?
Answer: Active

Question: What about the Activity (HT-29 [35]) of the same compound?
Answer: inactive

Question: And the Activity (HT-29 [36])?
Answer: inactive
